According to US5238936A, “Trisubstituted triazines” (Adir et Compagnie, priority 1991, dated 1993):

How the values were obtained:
resistant line P/388/VCR = experiment: Antitumour activity in vivo: increase in antitumour activity of vincristine on murine leukaemia P 388/VCR; design: species or system murine; female B6D2Fl mice; conditions: with vincristine […] i.p., ± sem, no compound: 146 ± 2
Description: This study was completed by an in vivo study, using a murine leukaemia resistant to vincristine (P/388/VCR) and using the compounds in association with vincristine.
The sensitive parent line P 388 (murine leukaemia) and the sub-line resistant to vincristine, P 388/VCR, were supplied by NCI (Frederick, USA). The tumour cells (10^6 cells) were inoculated on day 0 into the intraperitoneal cavity of female B6D2Fl mice (Iffa Credo, France) weighing from 18 to 20 g (groups of 8 to 10 animals).
Every day for 4 days, starting from day 1, the animals received: […]
30 to 60 minutes later, an administration by the i.p. route of 0.25 mg/kg of vincristine (used as a reference antitumour agent).
The tumour activity is expressed as follows: [formula]
The values are mean values obtained in independent experiments (± sem when n is greater than or equal to 3).

line DC-3F/AD [1] = experiment: Flow cytometry: intracellular accumulation of adriamycin by cells of the line DC-3F/AD; assay type: cell-based, Chinese hamster; conditions: ADR 50 μM, 5 hours
Description: Also measured was the effect of the compounds on the intracellular concentration of the cytotoxic agent. In effect, the known compounds for reversing MDR act by increasing the intracellular concentration of cytotoxic agent. This effect is the consequence of inhibiting the action of gP 170 which is responsible for the efflux of the drug.
By measuring that fluorescence, it is thus possible to obtain a relative measurement of the intracellular concentration of ADR.
The cells 500×10^3 per ml were exposed simultaneously to ADR at a fixed concentration (50 μM) and to the tested compounds at various concentrations. After 5 hours' incubation, the intracellular accumulation of ADR was evaluated by FCM. […] The analysis of each of the samples was carried out on a total of 10,000 cells at a rate of 1,000 cells per second.
The results were presented in the form of linear histograms of the intracellular ADR fluorescence.
Expression of the results: for each of the histograms the mean fluorescence per channel (MEAN) was determined by the information system of the apparatus. For all experiments:
a negative control (cells without ADR) fixed the autofluorescence threshold.
a positive control (cells with ADR) determined the MEAN value=MN1.
the "test" tubes (cells with ADR and with compound) were used to determine, for each of the compounds and at each of the concentrations, the MEAN values=MN2.
The results are expressed in the form of variations from the mean fluorescence obtained for each of the "test" tubes (MN2) in relation to the mean fluorescence obtained with the positive control (MNl): VAR-MEAN=MN2-MN1. The parameter expressed is thus the increase in ADR fluorescence in the presence of the tested compounds.

line DC-3F/AD [2] = experiment: Cytotoxicity (Microculture Tetrazolium Assay): reversal of resistance to actinomycin D, line DC-3F/AD; assay type: cell-based, Chinese hamster; conditions: 4 days
Description: The pharmacological study of the compounds of the present invention consisted first of all in an evaluation in vitro carried out on resistant cells. The parameter measured is the cytotoxicity of the antitumour drug, quantified in the absence and in the presence of the reversing compound.
The cells are distributed on microplates and exposed to the cytotoxic compounds (actinomycin D for line DC-3F/AD and adriamycin for line KB-Al) at 9 concentrations (2 by 2 series dilutions). The compounds tested for their capacity to reverse MDR are added at the same time as the cytotoxic agent.
The cells are then incubated for 4 days. […] The results are expressed as a reversion factor (RF): PG,29 [formula]

[3] = 100 mg/kg i.p. daily for 4 days

Structure (SMILES)	T/C % (resistant line P/388/VCR; 50 mg/kg i.p. daily for 4 days) [%]	T/C % (resistant line P/388/VCR; [3]) [%]	VAR-MEAN (increase in ADR fluorescence), line DC-3F/AD (line DC-3F/AD [1]; 1.0 μM compound)	VAR-MEAN (increase in ADR fluorescence), line DC-3F/AD (line DC-3F/AD [1]; 5.0 μM compound)	VAR-MEAN (increase in ADR fluorescence), line DC-3F/AD (line DC-3F/AD [1]; 10 μM compound)	VAR-MEAN (increase in ADR fluorescence), line DC-3F/AD (line DC-3F/AD [1]; […] compound)	Reversion factors (cytotoxicity) with the line DC-3F/AD (line DC-3F/AD [2]; 0.5 μM compound)	Reversion factors (cytotoxicity) with the line DC-3F/AD (line DC-3F/AD [2]; 1 μM compound)	Reversion factors (cytotoxicity) with the line DC-3F/AD (line DC-3F/AD [2]; 5 μM compound)
C=CCNc1nc(NCC=C)nc(N2CCC(NCC3c4ccccc4COc4ccccc43)CC2)n1 (racemic) [Example 19, 2,4-diallylamino-6-{4-[((R,S)-6,11-dihydro-dibenzo[b,e]oxepin-11-yl)methylamino]piperidin-1-yl}-1,3,5-triazine]	167 ± 7	184 ± 7	13.1	25.5	25.3	22.6	3.8	63	2525
C=CCNc1nc(NCC=C)nc(N2CCC(NCC3c4ccccc4N(C)S(=O)(=O)c4cc(Cl)ccc43)CC2)n1 (racemic) [Example 21, 2,4-diallylamino-6-{4-[(8-chloro-10,10-dioxo-11-methyl-(R,S)-dibenzo[c,f]thiazepin-5-yl)methylamino]piperidin-1-yl}-1,3,5-triazine]	154	148	8.1	22.8	24.1	21.1	1.2	18	2804
C=CCNc1nc(NC)nc(N2CCC(NCC3c4ccccc4COc4ccccc43)CC2)n1 (racemic) [Example 28, 2-allylamino-4-methylamino-6-{4-[((R,S)-6,11-dihydro-dibenzo[b,e]oxepin-11-yl)methylamino]piperidin-1-yl}-1,3,5-triazine]	170	171	4.3	16.8	21.5	12.8		18.1	600.4
C=CCNc1nc(NCC)nc(N2CCC(NCC3c4ccccc4COc4ccccc43)CC2)n1 (racemic) [Example 29, 2-allylamino-4-ethylamino-6-{4-[((R,S)-6,11-dihydrodibenzo[b,e]oxepin-11-yl)methylamino]piperidin-1-yl}-1,3,5-triazine]	171 ± 6	185 ± 7	6.4	18.0	21.8	13.3	1.7	33.8	1327.5
C=CCNc1nc(NCC=C)nc(NCCN2CCC(NCC3c4ccccc4CCc4ccccc43)CC2)n1 [Example 15, 2,4-diallylamino-6-(2-[4-(10,11-dihydro-5H-dibenzo-[a,d]cyclohepten-5-ylmethylamino)piperidin-1-yl]ethylamino}-1,3,5-triazine]			10.1	13.7	12.4	12.4	0.8	1	120
C=CCNc1nc(NCC=C)nc(NCC(O)CN2CCC(NC3c4ccccc4CCc4ccccc43)CC2)n1 (stereo not shown) [Example 16, 2,4-diallylamino-6-{3-[4-(10,11-dihydro-5H-dibenzo[a,d]cyclohepten-5-ylamino)piperidin-1-yl]-2-hydroxypropylamino}-1,3,5-triazine]			9.9	10.4	12.9	11.8	1	0.9	1.8
C=CCNc1nc(NCC=C)nc(NCC(O)CN2CCC(NCC3c4ccccc4CCc4ccccc43)CC2)n1 (stereo not shown) [Example 17, 2,4-diallylamino-6-{3-[4-(10,11-dihydro-5H-dibenzo[a,d]cyclohepten-5-ylmethylamino)piperidin-1-yl]-2-hydroxypropylamino}-1,3,5-triazine]			9.4	10.5	12.6	11.0	0.8	0.8	1.1
C=CCNc1nc(N)nc(N2CCC(NCC3c4ccccc4CCc4ccccc43)CC2)n1 [Example 18, 2-allylamino-4-amino-6-{4-[(10,11-dihydro-5H-dibenzo[a,d]cyclohepten-5-yl)methylamino]piperidin-1-yl}-1,3,5-triazine]			5.5	6.7	11.0	7.4	1.2	3	421
C=CCNc1nc(NCC=C)nc(N2CCC(CNC3c4ccccc4CCc4ccccc43)CC2)n1 [Example 23, 2,4-diallylamino-6-{4-[(10,11-dihydro-5H-dibenzo[a,d]cyclohepten-5-yl)aminomethyl]piperidin-1-yl}-1,3,5-triazine]			10.0	14.0	20.5	14.6		1.4	173
C=CCNc1nc(NCC=C)nc(N2CCN(NCC3c4ccccc4CCc4ccccc43)CC2)n1 [Example 24, 2,4-diallylamino-6-{4-[(10,11-dihydro-5H-dibenzo[a,d]cyclohepten-5-yl)methylamino]piperazin-1-yl}-1,3,5-triazine]			12.8	21.1	28.2	16.9	2.5	14	329
C=CCNc1nc(NCC=C)nc(N2CCN(CC3c4ccccc4CCc4ccccc43)CC2)n1 [Example 25, 2,4-diallylamino-6-{4-[(10,11-dihydro-5H-dibenzo[a,d]cyclohepten-5-yl)methyl]piperazin-1-yl}-1,3,5-triazine]			9.9	17.6	24.5	14.7		13	464
C=CCNc1nc(NCC=C)nc(N2CCC(N(C)CC3c4ccccc4CCc4ccccc43)CC2)n1 [Example 30, 2,4-diallylamino-6-{4-[N-((10,11-dihydro-5H-dibenzo[a,d]cyclohepten-5-yl)methyl)-N-methylamino]piperidin-1-yl}-1,3,5-triazine]			5.9	17.8	19.0	12.3		2.3	834.0
